Source: paper PMC8386742, “Discovery of N-aryl sulphonamide-quinazoline derivatives as anti-gastric cancer agents in vitro and in vivo via activating the Hippo signalling pathway” (Journal of Enzyme Inhibition and Medicinal Chemistry, 2021)
Read-outs that look alike come from different tables or passages of the source.

Tests used:
MGC-803 cells [1] = settings: 48 h, cited from earlier work
MGC-803 cells [2] = experiment: MTT antiproliferative assay, MGC-803 cells; type: cell-based, human; settings: Homo sapiens, MGC-803, 48 h, exposure for 48 h
Protocol: (§1) The in vitro antiproliferative activities of new target compounds 6a–6g, 9a–9i, 10a–10j, 11a–11j, and 14a–14d were evaluated against four human cancer cell lines (MGC-803, PC-3, HCT-116, and MCF-7) using MTT assay and 5-FU as a positive drug. The following Tables 1–[4] depicted the results of in vitro antiproliferative activity.
(§2) Cell lines used were cultured in humidified incubator in a humidified atmosphere of 5% CO2 and 95% air. The RPMI-1640 medium was supplemented with 10% foetal bovine serum, penicillin (100 U/ml) and streptomycin (0.1 mg/ml).
(§3) Cell lines were seeded into 96-well plates and incubated for 24 h. Then cells were treated with different concentrations of compounds. And after another 48 h, MTT reagent (20 μL per well) was added to each well and then incubated at 37 °C for 4 h. After the suspension was discarded, formazan was then dissolved with DMSO. Absorbencies of formazan solution were measured at 490 nm. The IC50 values of tested compounds were calculated by SPSS version 17.0.

HCT-116 cells = experiment: MTT antiproliferative assay, HCT-116 cells; type: cell-based, human; settings: exposure for 48 h
Protocol: as §1, §2, §3

PC-3 cells = experiment: MTT antiproliferative assay, PC-3 cells; type: cell-based, human
Protocol: as §1, §2, §3

MCF-7 cells = experiment: MTT antiproliferative assay, MCF-7 cells; type: cell-based, human; settings: exposure for 48 h
Protocol: as §1, §2, §3

SGC-7901 cells = experiment: MTT antiproliferative assay, SGC-7901 gastric cancer cells; type: cell-based; settings: exposure for 48 h
Protocol: (§4) Furthermore, MGC-803 cells were more sensitive to the compounds than HCT-116, PC-3 cells MCF-7 cells. Moreover, we chose two other common gastric cancer cell lines (HGC-27 and SGC-7901) and another two normal cells GES-1 and HUEVC cells to examine for the inhibitory activity of compound 9i.
as §2, §3

HGC-27 cells = experiment: MTT antiproliferative assay, HGC-27 gastric cancer cells; type: cell-based; settings: MTT, exposure for 48 h
Protocol: as §4, §2, §3

GES-1 cells = experiment: MTT antiproliferative assay, GES-1 normal gastric epithelial cells; type: cell-based; settings: MTT, exposure for 48 h, non-cancer cell line
From the text: as §4
Since compound 9i presented high potency against cancer cells and MGC-803 cells was more sensitive to compound 9i, compound 9i, MGC-803, another two gastric cancer cells SGC-7901, HGC-27, and GES-1(normal gastric epithelial cells) were used for further detection. As shown in Figures 3(A,B), compound 9i inhibited three gastric cancer cell lines in the dose and time-dependent manners. The inhibition ratios of compound 9i against three gastric cancer cells were all above 50% after 48 h in the high dosage group. Moreover, MGC-803 and SGC-7901 cell lines were more sensitive and compound 9i inhibited over 65% cell viability with high dose treatment for 48 h.
as §2, §3

HUEVC cells = experiment: MTT antiproliferative assay, HUEVC normal cells; type: cell-based; settings: exposure for 48 h, non-cancer cell line
Protocol: as §4, §2, §3

[3] = Homo sapiens, PC-3, exposure for 48 h

Compound	IC50 (MGC-803 cells [2]) [µM]	IC50 (HCT-116 cells; Homo sapiens, HCT-116, 48 h) [µM]	IC50 (PC-3 cells; [3]) [µM]	IC50 (MCF-7 cells; Homo sapiens, MCF7, 48 h) [µM]	melting point [°C]	other results
COc1ccc(CN(C(=O)CSc2nc3ccccc3[nH]2)c2cc(OC)c(OC)c(OC)c2)cc1 [Compound 1]						IC50 (MGC-803 cells [1]; previously reported compound 1 ref 31): 1.23 µM
COc1cc(N(Cc2nc3ccccc3[nH]2)S(=O)(=O)c2ccc(C)cc2)cc(OC)c1OC [Compound 2]						IC50 (MGC-803 cells [1]; previously reported compound 2 ref 32): 1.02 µM
COc1ccc(CN(c2cc(OC)c(OC)c(OC)c2)S(=O)(=O)c2cccnc2)cc1 [Compound 6g, N-(4-methoxybenzyl)-N-(3,4,5-trimethoxyphenyl) pyridine-3-sulphonamide]	38.2 ± 1.55	> 40	16.9 ± 1.58	> 40	162 to 163	
O=c1[nH]cc(F)c(=O)[nH]1 [Compound 5-Fu, reference compound]						IC50 (HCT-116 cells): 14.4 ± 1.73 µM; IC50 (PC-3 cells; exposure for 48 h): 17.1 ± 1.42 µM; IC50 (MCF-7 cells): 12.1 ± 1.28 µM; IC50 (SGC-7901 cells): 3.88 µM; IC50 (HGC-27 cells): 4.94 µM; IC50 (GES-1 cells): 10.2 µM; IC50 (HUEVC cells): 18.5 µM
COc1ccc(CN(c2cc(OC)c(OC)c(OC)c2)S(=O)(=O)c2ccc(Cl)cc2)cc1 [Compound 6b, 4-Chloro-N-(4-methoxybenzyl)-N-(3,4,5-trimethoxyphenyl) benzene-sulphonamide]	> 40	> 40	> 40	> 40	166 to 167	

The next lines start with results.

IC50 (MGC-803 cells [2]) [µM]	IC50 (HCT-116 cells; Homo sapiens, HCT-116, 48 h) [µM]	IC50 (PC-3 cells; [3]) [µM]	IC50 (MCF-7 cells; Homo sapiens, MCF7, 48 h) [µM]	melting point [°C]	Compound	other results
> 50	> 50	> 50	> 50	154 to 155	COc1cc(N(Cc2nc(C)c3ccccc3n2)S(=O)(=O)c2c(C)cc(C)cc2C)cc(OC)c1OC [Compound 10f, 2,4,6-Trimethyl-N-((4-methylquinazolin-2-yl)methyl)-N-(3,4,5-trimethoxyphenyl) benzene-sulfonamide]	
8.57 ± 1.62	18.8 ± 1.72	16.2 ± 1.06	24.5 ± 0.61	161 to 162	COc1ccc(S(=O)(=O)N(Cc2ccccc2)c2cc(OC)c(OC)c(OC)c2)cc1 [Compound 9a, N-benzyl-4-methoxy-N-(3,4,5-trimethoxyphenyl) benzene-sulfonamide]	
19.2 ± 1.07	23 ± 5.25	36.1 ± 0.01	23.4 ± 1.53	172 to 173	COc1ccc(S(=O)(=O)N(Cc2ccc(Cl)cc2)c2cc(OC)c(OC)c(OC)c2)cc1 [Compound 9b, N-(4-chlorobenzyl)-4-methoxy-N-(3,4,5-trimethoxyphenyl) benzene-sulphonamide]	
44.6 ± 1.41	46.9 ± 1.84	> 50	> 50	85 to 86	COc1ccc(S(=O)(=O)N(Cc2nc(C)c3ccccc3n2)c2ccccc2)cc1 [Compound 14a, 4-Methoxy-N-((4-methylquinazolin-2-yl)methyl)-N-phenylbenzene-sulphonamide]	
14.2 ± 1.03	22.9 ± 1.34	36.6 ± 0.34	18.5 ± 0.81	129 to 130	COc1ccc(S(=O)(=O)N(Cc2nc(C)c3ccccc3n2)c2cc(OC)c(OC)c(OC)c2)cc1OC [Compound 10h, 3,4-Dimethoxy-N-((4-methylquinazolin-2-yl)methyl)-N-(3,4,5-trimethoxyphenyl)benzene-sulfonamide]	
> 40	> 40	> 40	> 40	190 to 191	COc1cc(N(Cc2nc(C)c3ccccc3n2)C(=O)c2ccccc2Cl)cc(OC)c1OC [Compound 11d, 2-Chloro-N-((4-methylquinazolin-2-yl)methyl)-N-(3,4,5-trimethoxyphenyl) benzamide]	
14.7 ± 1.88	24.8 ± 2.13	> 40	> 40	136 to 137	COc1cc(N(Cc2nc(C)c3ccccc3n2)C(=O)c2cccs2)cc(OC)c1OC [Compound 11j, N-((4-methylquinazolin-2-yl)methyl)-N-(3,4,5-trimethoxyphenyl)thiophene-2-carboxamide]	
> 40	> 40	> 40	> 40	117 to 118	COc1cc(N(Cc2nc(C)c3ccccc3n2)C(=O)c2ccc(C(C)(C)C)cc2)cc(OC)c1OC [Compound 11g, 4-(Tert-butyl)-N-((4-methylquinazolin-2-yl)methyl)-N-(3,4,5-trimethoxyphenyl) benzamide]	
31.1 ± 0.79	> 50	28 ± 2.76	33.8 ± 1.39	187 to 188	COc1ccc(S(=O)(=O)N(Cc2ccc(Br)cc2)c2cc(OC)c(OC)c(OC)c2)cc1 [Compound 9c, N-(4-bromobenzyl)-4-methoxy-N-(3,4,5-trimethoxyphenyl) benzene-sulphonamide]	
